Experimental data taken from patent US20150105252A1, “SUBSTITUTED PYRAZOLES AS HERBICIDES” (E I DU PONT DE NEMOURS AND COMPANY, priority 2013, published 2015).

What was measured:
[1] = tested on: galium; test: Test D preemergence; format: in vivo, Galium aparine; details: scale 0 to 100
Description: (§1) Seeds of plant species selected from bluegrass (annual bluegrass, Poa annua), blackgrass (Alopecurus myosuroides), canarygrass (littleseed canarygrass, Phalaris minor), chickweed (common chickweed, Stellaria media), galium (catchweed bedstraw, Galium aparine), bromegrass, downy (downy bromegrass, Bromus tectorum), field poppy (Papaver rhoeas), field violet (Viola arvensis), foxtail, green (green foxtail, Setaria viridis), deadnettle (henbit deadnettle, Lamium amplexicaule), ryegrass, Italian (Italian ryegrass, Lolium multiflorum), kochia (Kochia scoparia), lambsquarters (Chenopodium album), oilseed rape (Brassica napus), pigweed (redroot pigweed, Amaranthus retroflexus), chamomile (scentless chamomile, Matricaria inodora), speedwell (bird's-eye speedwell, Veronica persica), barley, spring (spring barley, Hordeum vulgare), wheat, spring (spring wheat, Triticum aestivum), buckwheat, wild (wild buckwheat, Polygonum convolvulus), mustard, wild (wild mustard, Sinapis arvensis), oat, wild (wild oat, Avena fatua), radish, wild (wild radish, Raphanus raphanistrum), windgrass (Apera spica-venti), Russian thistle (Salsola kali), barley, winter (winter barley, Hordeum vulgare), and wheat, winter (winter wheat, Triticum aestivum) were planted into a silt loam soil and treated preemergence with test chemicals formulated in a non-phytotoxic solvent mixture which included a surfactant.
(§2) At the same time, these species were planted in pots containing Redi-Earth® planting medium (Scotts Company, 14111 Scottslawn Road, Marysville, Ohio 43041) comprising spaghnum peat moss, vermiculite, wetting agent and starter nutrients and treated with postemergence applications of the test chemicals formulated in the same manner. Plants ranged in height from 2 to 18 cm (1- to 4-leaf stage). Treated plants and controls were maintained in a controlled growth environment for 14 to 21 days after which time all species were compared to controls and visually evaluated. Plant response ratings, summarized in Table D, are based on a scale of 0 to 100 where 0 is no effect and 100 is complete control. A dash (-) response means no test result.

[2] = tested on: oilseed rape; test: Test D postemergence; format: in vivo, Brassica napus; details: scale 0 to 100
Description: as §1, §2

[3] = tested on: wild poinsettia; test: Test F preemergence; format: in vivo, Euphorbia heterophylla
Description: (§3) Seeds of plant species selected from corn (Zea mays), soybean (Glycine max), velvetleaf (Abutilon theophrasti), lambsquarters (Chenopodium album), wild poinsettia (Euphorbia heterophylla), pigweed, palmer (palmer pigweed, Amaranthus palmeri), common waterhemp (Amaranthus rudis), surinam grass (Brachiaria decumbens), large crabgrass (Digitaria sanguinalis), crabgrass, Brazil (Brazilian crabgrass, Digitaria horizontalis), fall panicum (Panicum dichotomiflorum), giant foxtail (Setaria faberii), green foxtail (Setaria viridis), goosegrass (Eleusine indica), johnsongrass (Sorghum halepense), common ragweed (Ambrosia elation), barnyardgrass (Echinochloa crus-galli), southern sandbur (Cenchrus echinatus), arrowleaf sida (Sida rhombifolia), Italian ryegrass (Lolium multiflorum), dayflower, VA (Virginia (VA) dayflower, Commelina virginica), field bindweed (Convolvulus arvensis), cocklebur (common cocklebur, Xanthium strumarium), morningglory (Ipomoea coccinea), nightshade (eastern black nightshade, Solanum ptycanthum), kochia (Kochia scoparia), yellow nutsedge (Cyperus esculentus), and hairy beggarticks (Bidens pilosa), were planted into a silt loam soil and treated preemergence with test chemicals formulated in a non-phytotoxic solvent mixture which included a surfactant.
(§4) At the same time, plants from these crop and weed species and also horseweed (Canada horseweed, Conyza canadensis), smartweed (ladysthumb smartweed, Polygonum persicaria), waterhemp_RES1, (ALS & Triazine resistant common waterhemp, Amaranthus rudis), and waterhemp_RES2, (ALS & HPPD resistant common waterhemp, Amaranthus rudis) were treated with postemergence applications of test chemicals formulated in the same manner. Plants ranged in height from 2 to 18 cm for postemergence treatments (1- to 4-leaf stage). Treated plants and controls were maintained in a greenhouse for 14 to 21 days, after which time all species were compared to controls and visually evaluated. Plant response ratings, summarized in Table F, are based on a scale of 0 to 100 where 0 is no effect and 100 is complete control. A dash (-) response means no test result.

[4] = tested on: field bindweed; test: Test F preemergence; format: in vivo, Convolvulus arvensis
Description: as §3, §4

[5] = tested on: morningglory; test: Test F preemergence; format: in vivo, Ipomoea coccinea
Description: as §3, §4

[6] = tested on: nightshade; test: Test F preemergence; format: in vivo, Solanum ptycanthum
Description: as §3, §4

[7] = tested on: horseweed; test: Test F postemergence; format: in vivo, Conyza canadensis; details: scale 0 to 100
Description: as §3, §4

[8] = Preemergence, 31 g ai/ha, scale 0 to 100
[9] = Preemergence, 62 g ai/ha, scale 0 to 100
[10] = Preemergence, 125 g ai/ha, scale 0 to 100
[11] = preemergence, 8 g ai/ha, scale 0 to 100, 100 is complete control
[12] = preemergence, 16 g ai/ha, scale 0 to 100, 100 is complete control
[13] = Preemergence, 16 g ai/ha, scale 0 to 100
[14] = Preemergence, 250 g ai/ha, scale 0 to 100

Structure (SMILES) | Plant response rating, Galium ([1]; 62 g ai/ha) | Plant response rating, Galium ([1]; 125 g ai/ha) | Plant response rating, Galium ([1]; 250 g ai/ha) | Oilseed Rape plant response rating ([2]; Postemergence, 31 g ai/ha) | Oilseed Rape plant response rating ([2]; Postemergence, 125 g ai/ha) | Plant response rating, Wild Poinsettia [3, 9] | Plant response rating, Wild Poinsettia [3, 10] | Plant response rating, Wild Poinsettia [3, 11] | Plant response rating, Wild Poinsettia [3, 12] | Plant response rating, Field Bindweed [4, 9] | Plant response rating, Field Bindweed [4, 10] | Plant response rating, Field Bindweed [4, 11] | Plant response rating, Field Bindweed [4, 12] | Plant response rating, Morningglory [5, 9] | Plant response rating, Morningglory [5, 10] | Plant response rating, Morningglory [5, 11] | Plant response rating, Morningglory [5, 12] | Plant response rating, Nightshade [6, 9] | Plant response rating, Nightshade [6, 10] | Plant response rating, Nightshade [6, 11] | further results
CCc1cc(C(=O)NC(C)C)nn1Cc1ccnc(C(F)(F)F)c1 [Compound 103] | 100 | 100 | 100 | 25 | 35 |  |  |  |  |  |  |  |  |  |  |  |  |  |  |  | Plant response rating, Galium ([1]; 31 g ai/ha): 50; Oilseed Rape plant response rating ([2]; Postemergence, 250 g ai/ha): 45; Oilseed Rape plant response rating ([2]; postemergence, 62 g ai/ha): 35
CCOc1cc(C(=O)NCC(F)(F)F)nn1Cc1ccnc(C(F)(F)F)c1 [Compound 104] |  |  |  |  |  | 80 | 98 | 0 | 10 | 50 | 95 | 0 | 10 | 80 | 100 | 0 | 0 | 100 | 100 | 0 | Plant response rating, Wild Poinsettia [3, 8]: 15; Plant response rating, Field Bindweed [4, 8]: 30; Plant response rating, Morningglory [5, 8]: 70; Plant response rating, Nightshade [6, 8]: 100; Plant response rating, Nightshade [6, 12]: 65; Plant response rating, Horseweed ([7]; Postemergence, 31 g ai/ha): 25; Plant response rating, Horseweed ([7]; Postemergence, 125 g ai/ha): 35; Plant response rating, Horseweed ([7]; Postemergence, 250 g ai/ha): 35; Plant response rating, Horseweed ([7]; postemergence, 62 g ai/ha): 30; Plant response rating, Horseweed ([7]; postemergence, 500 g ai/ha): 45
CCCc1cc(C(=O)NCC(F)(F)F)nn1Cc1cc(C(F)(F)F)nn1C [Compound 138] | 100 | 100 | 100 | 60 | 90 |  |  |  |  |  |  |  |  |  |  |  |  |  |  |  | Oilseed Rape plant response rating ([2]; Postemergence, 250 g ai/ha): 100; Oilseed Rape plant response rating ([2]; postemergence, 62 g ai/ha): 60
CCNC(=O)c1cc(CCCl)n(Cc2ccnc(C(F)(F)F)c2)n1 [Compound 179] |  |  |  |  |  | 40 | 50 | 0 |  | 50 | 75 | 0 |  | 60 | 70 | 0 |  | 85 | 100 | 0 | Plant response rating, Wild Poinsettia [3, 8]: 5; Plant response rating, Field Bindweed [4, 8]: 5; Plant response rating, Morningglory [5, 8]: 40; Plant response rating, Nightshade [6, 8]: 65
CCOc1cc(C(=O)NC2CC2)nn1Cc1ccnc(C(F)(F)F)c1 [Compound 189] | 75 | 70 | 100 | 40 | 55 |  |  |  |  |  |  |  |  |  |  |  |  |  |  |  | Oilseed Rape plant response rating ([2]; Postemergence, 250 g ai/ha): 60; Oilseed Rape plant response rating ([2]; postemergence, 62 g ai/ha): 40
CCNC(=O)c1cc(CC)n(Cc2ccnc(C(F)(F)F)c2)n1 [Compound 196] |  |  |  |  |  | 35 | 65 | 0 | 5 | 75 | 85 | 5 | 10 | 70 | 80 | 5 | 10 | 75 | 95 | 0 | Plant response rating, Field Bindweed [4, 13]: 20; Plant response rating, Morningglory [5, 13]: 35; Plant response rating, Nightshade [6, 13]: 50; Plant response rating, Nightshade [6, 12]: 35
Cc1cc(C(=O)NC(C)C)nn1Cc1ccnc(C(F)(F)F)c1 [Compound 197] |  |  |  |  |  | 35 | 60 | 5 | 0 | 50 | 80 | 10 | 15 | 30 | 60 | 0 | 10 | 30 | 70 | 0 | Plant response rating, Field Bindweed [4, 13]: 35; Plant response rating, Morningglory [5, 13]: 20; Plant response rating, Nightshade [6, 13]: 20; Plant response rating, Nightshade [6, 12]: 10
CCc1cc(C(=O)NC2CC2)nn1Cc1ccnc(OCC(F)(F)F)c1 [Compound 200] |  |  |  |  |  | 15 | 20 |  | 0 | 0 | 50 |  | 0 | 10 | 60 |  | 0 | 20 | 75 |  | Plant response rating, Wild Poinsettia [3, 14]: 35; Plant response rating, Field Bindweed [4, 14]: 60; Plant response rating, Field Bindweed [4, 13]: 0; Plant response rating, Morningglory [5, 14]: 75; Plant response rating, Morningglory [5, 13]: 0; Plant response rating, Nightshade [6, 14]: 98; Plant response rating, Nightshade [6, 13]: 0
